Test results taken from PMC12705613 (Frontiers in Microbiology, 2025).

Key:
[1] = tested on: Enterococcus faecalis (ATCC 51299); format: in vitro ADME; conditions: tested concentrations; OD600
Description: (§1) Enterococcus faecalis (ATCC 51299, BNCC) was cultured in modified brain heart infusion (BHI) broth supplemented with L-cysteine HCl (0.5 g/L), vitamin K1 (10 mg/L), hemin (5 mg/L) and resazurin (1 mg/L). Limosilactobacillus reuteri (JCM 1112, Guangdong Academy of Sciences) was cultured in MRS medium at 37 °C in an anaerobic chamber (5%H2, 5%CO2 and 90%N2). Drug metabolism assays were performed in 96-well plates under optimal growth conditions for each strain. […] Each experiment comprised three biological replicates, including a bacteria-free control. The growth of strains was monitored by measuring OD600 (Eon Microplate Spectrophotometer, BioTek) every 2 h for the first 10 h, followed by 12 to 24 h intervals until 72 h. Supernatants were withdrawn at 6, 12, 24, 48, and 72 h. The remaining drug content and the formation of E-3179 were quantified via UHPLC-TQ-MS. The sample preparation for quantitative analysis was the same as in section 2.3.

[2] = Metabolites detection in vivo in plasma, feces and urine (UHPLC-Q-TOF-MS); parameters: species or system rat; conditions: single oral losartan potassium 20 mg/kg
Description: For urine and feces, cumulative samples were collected over the following time intervals: 0–4, 4–8, 8–12, and 12–24 h after administration. The processing of the biological samples can be found in the Supplementary material.
The biological samples were processed as follows: For plasma, a total of 400 μL of pooled plasma was mixed by combining 50 μL aliquots from each time point. A 100 μL aliquot was mixed with 300 μL of methanol, vortexed for one minute, and centrifuged at 5,000 rpm for 10 minutes at 4°C [1]. In the case of urine, 1 mL was centrifuged at 4,000 rpm for 20 minutes at 4°C, and the supernatant was mixed with 2 mL of methanol, vortexed for one minute, and centrifuged at 12,000 rpm for 10 minutes at 4°C [2]. For fecal samples, 1.0 g of homogenized feces was extracted with 4 mL of methanol, sonicated in an ice-water bath for 20 minutes, and then centrifuged at 12,000 rpm for 10 minutes at 4°C [3]. Supernatants from the plasma, urine, and fecal extracts were evaporated under nitrogen gas, redissolved in methanol, and transferred to liquid chromatography vials. Samples were analyzed using UHPLC-Q-TOF-MS/MS for metabolite profiling.

[3] = tested on: Limosilactobacillus reuteri (JCM 1112); assay: Co-incubation of drug with L. reuteri (degradation, growth); format: in vitro ADME; conditions: tested concentrations; OD600
Description: as §1

[4] = Stability of the analytes in rat plasma at different storage conditions; format: in vitro ADME
Description: Analysis of QC samples was performed according to a standard curve, which was obtained from freshly prepared calibration standard samples. The autosampler stability was determined by placing samples in the autosampler rack at 8 ℃ for 24 h. The freeze-thaw stability was evaluated after three complete freeze-thaw cycles (-80 ℃ to 25 ℃) on consecutive days. The short-term stability was determined after samples were exposed to room temperature for 6 h. The long-term stability was assessed after storing the samples at -80 ℃ for 30 days. The analytes were considered stable if the deviation between the mean measured concentration and the nominal concentration was within ± 15.0%.

gut microbiota from SHRs = assay: Anaerobic incubation of drug with fecal gut microbiota from SHRs; format: in vitro ADME, rat; conditions: for Qualitative analysis: metabolism to other compounds: SHR gut microbiota in vitro, UHPLC-Q-TOF-MS; for Remaining content: SHR gut microbiota, 40 μM drug, anaerobic 37 °C, mGAM
Description: Fresh fecal samples from WKYs and SHRs were collected and immediately transferred to an anaerobic chamber (90% N₂, 5% CO₂, 5% H₂). Fecal suspensions were prepared by homogenizing 1 g of feces in 15 mL of sterile phosphate-buffered saline containing 0.1% L-cysteine. […] Bacteria-free controls contained equivalent drug volumes consistently. […] Drug remaining content and non-target metabolites screen were detected by ultra-high performance liquid chromatography coupled with triple quadrupole mass spectrometry (UHPLC-TQ-MS) and ultra-high performance liquid chromatography with quadrupole time-of-flight mass spectrometry (UHPLC-Q-TOF-MS), respectively. The sample preparation process can be found in the Supplementary material. For UHPLC-Q-TOF-MS analysis, the MS parameters and IDA criteria can be seen in Supplementary Table S1.
The sample processing procedures were tailored to align with the experimental objectives. For qualitative metabolite profiling, supernatants from the co-incubation of bacteria and drugs were collected at designated time points, filtered using a 0.22 μm membrane, lyophilized, and reconstituted in 200 μL of methanol. After vortexing and centrifuging for 10 minutes at 4°C and 12,000 rpm, the supernatant was transferred to an LC vial, and 5 μL aliquot was injected into the UHPLC-Q-TOF-MS/MS. For quantitative analysis, 100 μL aliquots were taken from the co-incubation supernatant and spiked with 1,000 μL of methanol containing 500 ng/mL of irbesartan. Following one minute of vortexing and centrifugation at 12,000 rpm for 10 minutes, the resulting supernatant was transferred to an LC vial, and a 5μL aliquot was injected into the UHPLC-TQ-MS/MS.

[5] = autosampler for 24 h (8 ℃), high nominal conc. (losartan 8000, E-3174 4000, E-3179 1600 ng/mL)
[6] = autosampler for 24 h (8 ℃), low nominal conc. (losartan 0.2, E-3174 10, E-3179 0.4 ng/mL)
[7] = autosampler for 24 h (8 ℃), middle nominal conc. (losartan 2000, E-3174 1000, E-3179 400 ng/mL)
[8] = room temperature for 6 h, high nominal conc. (losartan 8000, E-3174 4000, E-3179 1600 ng/mL)
[9] = room temperature for 6 h, low nominal conc. (losartan 0.2, E-3174 10, E-3179 0.4 ng/mL)
[10] = room temperature for 6 h, middle nominal conc. (losartan 2000, E-3174 1000, E-3179 400 ng/mL)
[11] = three freeze-thaw cycles, high nominal conc. (losartan 8000, E-3174 4000, E-3179 1600 ng/mL)
[12] = three freeze-thaw cycles, low nominal conc. (losartan 0.2, E-3174 10, E-3179 0.4 ng/mL)
[13] = three freeze-thaw cycles, middle nominal conc. (losartan 2000, E-3174 1000, E-3179 400 ng/mL)
[14] = −80°C for 30 days, high nominal conc. (losartan 8000, E-3174 4000, E-3179 1600 ng/mL)
[15] = −80°C for 30 days, low nominal conc. (losartan 0.2, E-3174 10, E-3179 0.4 ng/mL)
[16] = −80°C for 30 days, middle nominal conc. (losartan 2000, E-3174 1000, E-3179 400 ng/mL)

SMILES | Inhibition of growth of E. faecalis [1] | Abundance in feces and plasma, SHRs vs WKYs [2] | Inhibition of growth of L. reuteri [3] | Stability RE [4, 5] | Stability RE [4, 6] | Stability RE [4, 7] | Stability RE [4, 8] | Stability RE [4, 9] | Stability RE [4, 10] | Stability RE [4, 11] | Stability RE [4, 12] | Stability RE [4, 13] | Stability RE [4, 14] | Stability RE [4, 15] | Stability RE [4, 16] | Qualitative analysis: metabolism to other compounds (gut microbiota from SHRs) | Remaining content (gut microbiota from SHRs; 0 h) | Remaining content (gut microbiota from SHRs; 12 h) | Remaining content (gut microbiota from SHRs; 24 h) | Remaining content (gut microbiota from SHRs; 48 h) | further results
CCCCc1nc(Cl)c(C(=O)O)n1Cc1ccc(-c2ccccc2-c2nnn[nH]2)cc1 [E-3174] | did not inhibit the growth | lower in SHRs than in WKYs | did not inhibit the growth | 2.69% | -4.63% | -1.40% | 0.27% | 3.95% | 11.23% | 5.22% | 0.33% | 8.12% | 5.50% | 1.75% | 5.09% | neither losartan nor E-3174 was metabolized to other compounds | 38.21 ± 0.11 µM | 39.55 ± 2.13 µM | 35.95 ± 1.41 µM | 27.07 ± 6.32 µM | 
CCCCc1nc(Cl)c(CO)n1Cc1ccc(-c2ccccc2-c2nn[nH]n2)cc1 [Losartan, Losartan potassium] | did not inhibit the growth | lower in SHRs than in WKYs | did not inhibit the growth | 8.67% | -4.05% | 12.50% | 5.37% | 12.66% | 10.42% | 6.18% | -2.68% | 9.49% | 4.25% | -7.51% | 12.98% | neither losartan nor E-3174 was metabolized to other compounds | 37.62 ± 1.03 µM | 38.41 ± 2.14 µM | 33.51 ± 2.35 µM | 32.98 ± 2.19 µM | Abundance in urine, SHRs vs WKYs [2]: more abundant in urine
